Laboratory results from paper PMC7915026, “Sulfaguanidine Hybrid with Some New Pyridine-2-One Derivatives: Design, Synthesis, and Antimicrobial Activity against Multidrug-Resistant Bacteria as Dual DNA Gyrase and DHFR Inhibitors” (Antibiotics, 2021).
Values after ≈ are worked out from the molar mass of the structure shown. Where two headings read alike, the source gives them in different places.

Experiments:
[1] = molecular target: E. coli DHFR (dihydrofolate reductase) (Escherichia coli, UniProt P0ABQ4); test: In vitro DHFR enzymatic assay; type: biochemical
E. coli DHFR (dihydrofolate reductase), sequence (P0ABQ4 whole entry): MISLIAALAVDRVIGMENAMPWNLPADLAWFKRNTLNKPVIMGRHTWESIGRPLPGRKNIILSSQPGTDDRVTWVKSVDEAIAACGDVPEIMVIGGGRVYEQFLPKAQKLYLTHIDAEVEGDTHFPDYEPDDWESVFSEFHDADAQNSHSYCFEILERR

[2] = test system: F. oxysporum (RCMB 008002); test: MIC and MFC determination; type: cell-based
C. albicans (ATCC 10231) [3] = test: MIC and MFC determination; type: cell-based
S. aureus ATCC 43300 [4] = test: MIC and MBC against multidrug-resistant strains; type: cell-based; conditions: Staphylococcus aureus, ATCC43300, S. aureus ATCC 43300
Description: (§1) Norfloxacin was used as a positive control for the multidrug resistance study.
(§2) The experiment was repeating for three-times.

S. aureus ATCC 33591 [5] = test: MIC and MBC against multidrug-resistant strains; type: cell-based; conditions: Staphylococcus aureus, ATCC33591, S. aureus ATCC 33591
Description: as §1, §2

E. coli ATCC BAA-196 [6] = test: MIC and MBC against multidrug-resistant strains; type: cell-based; conditions: E. coli ATCC BAA-196
Description: as §1, §2

[7] = test system: P. aeruginosa ATCC BAA-2111; test: MIC and MBC against multidrug-resistant strains; type: cell-based; conditions: P. aeruginosa ATCC BAA-2111
Description: as §1, §2

S. aureus DNA gyrase = S. aureus DNA gyrase (Staphylococcus aureus, UniProt P0A0K8+P20831); test: In vitro DNA gyrase supercoiling enzymatic assay; type: biochemical
S. aureus DNA gyrase, sequence (P20831 whole entry): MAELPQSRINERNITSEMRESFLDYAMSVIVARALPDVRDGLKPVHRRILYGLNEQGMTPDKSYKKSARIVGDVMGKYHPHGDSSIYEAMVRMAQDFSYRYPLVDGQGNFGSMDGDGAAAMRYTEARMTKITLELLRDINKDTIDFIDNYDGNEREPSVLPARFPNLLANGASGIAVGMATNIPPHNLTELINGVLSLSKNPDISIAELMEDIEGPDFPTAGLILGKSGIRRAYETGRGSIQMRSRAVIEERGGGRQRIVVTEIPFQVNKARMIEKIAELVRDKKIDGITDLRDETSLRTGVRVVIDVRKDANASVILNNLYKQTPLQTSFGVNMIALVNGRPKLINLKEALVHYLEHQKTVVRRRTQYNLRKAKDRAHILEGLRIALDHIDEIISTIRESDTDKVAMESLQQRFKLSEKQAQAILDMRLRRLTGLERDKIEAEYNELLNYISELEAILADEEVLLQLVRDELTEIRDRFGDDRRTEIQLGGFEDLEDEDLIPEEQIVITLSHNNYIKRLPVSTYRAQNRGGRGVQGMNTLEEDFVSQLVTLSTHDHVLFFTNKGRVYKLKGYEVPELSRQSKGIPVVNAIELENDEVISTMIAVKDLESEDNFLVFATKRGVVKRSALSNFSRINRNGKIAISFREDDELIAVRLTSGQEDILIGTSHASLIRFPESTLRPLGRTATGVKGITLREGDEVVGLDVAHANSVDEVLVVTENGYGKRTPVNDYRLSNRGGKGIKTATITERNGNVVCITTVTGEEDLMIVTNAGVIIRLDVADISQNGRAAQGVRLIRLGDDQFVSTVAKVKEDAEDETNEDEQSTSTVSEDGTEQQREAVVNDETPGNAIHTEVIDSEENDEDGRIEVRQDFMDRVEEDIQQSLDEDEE
S. aureus DNA gyrase, sequence (P0A0K8 whole entry): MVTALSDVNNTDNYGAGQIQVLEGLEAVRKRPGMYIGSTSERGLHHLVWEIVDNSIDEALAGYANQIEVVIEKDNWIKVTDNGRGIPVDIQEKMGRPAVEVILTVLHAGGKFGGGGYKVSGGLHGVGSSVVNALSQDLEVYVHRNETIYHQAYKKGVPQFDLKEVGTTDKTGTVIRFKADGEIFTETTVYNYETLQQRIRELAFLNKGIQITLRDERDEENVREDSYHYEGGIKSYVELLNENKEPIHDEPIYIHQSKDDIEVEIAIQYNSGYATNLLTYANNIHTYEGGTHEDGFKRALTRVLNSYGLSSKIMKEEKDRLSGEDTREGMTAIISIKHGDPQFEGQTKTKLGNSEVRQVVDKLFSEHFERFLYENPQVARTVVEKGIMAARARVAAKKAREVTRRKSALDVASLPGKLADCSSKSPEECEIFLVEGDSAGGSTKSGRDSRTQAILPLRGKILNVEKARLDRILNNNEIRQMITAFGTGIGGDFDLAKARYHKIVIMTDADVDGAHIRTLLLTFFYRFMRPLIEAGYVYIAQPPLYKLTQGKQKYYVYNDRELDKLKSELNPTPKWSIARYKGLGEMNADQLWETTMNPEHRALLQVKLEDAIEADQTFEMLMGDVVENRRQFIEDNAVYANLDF

E. faecalis ATCC 29212 [8] = test: MIC and MBC determination; type: cell-based; conditions: Enterococcus faecalis, ATCC29212, E. faecalis
MDRB strains = test: MIC and MBC, ranges over the MDRB panel; type: cell-based; conditions: four MDRB strains
Description: as §1, §2

B. subtilis ATCC 6633 = test: MIC and MBC determination; type: cell-based; conditions: B. subtilis
[9] = test system: Salmonella typhi (S. typhi ATCC 6539); test: microbe, parasite or virus in culture; type: cell-based; conditions: Salmonella enterica, Salmonella typhi
E. coli ATCC 25922 [10] = test: MIC and MBC determination; type: cell-based; conditions: E. coli
spleen and thymus = test: In vivo immunomodulation: immune organ weight and indexes; design: Spleen index: unit not given here; conditions: mice
Description: Both the spleen and thymus have important antibacterial and fungal immune organ responses, and any change in weight, and indexes can reflect the level of immune regulation. Additionally, the relative spleen and thymus indexes are important indices for nonspecific immunity and potential immunomodulatory compounds that increase the spleen and thymus weight. This increase is due to immune cells’ stimulation in the spleen and thymus. […]

S. aureus ATCC 29213 = test: Inhibition zone, paper disk/agar diffusion; type: cell-based; conditions: S. aureus; Na = no activity
How it was run: (§3)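 Norfloxacin was included as a positive control. Compounds diffused into seeded agar, and zones of inhibition were recorded as diameter (mm).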

E. coli ATCC 25922 [11] = test: Inhibition zone, paper disk/agar diffusion; type: cell-based; conditions: E. coli; Na = no activity
How it was run: as §3

[12] = test system: F. oxysporum (RCMB 008002); test: Inhibition zone, paper disk/agar diffusion; type: cell-based; conditions: Na = no activity
How it was run: as §3

P. aeruginosa ATCC 27853 [13] = test: Inhibition zone, paper disk/agar diffusion; type: cell-based; conditions: P. aeruginosa; Na = no activity
How it was run: as §3

C. albicans (ATCC 10231) [14] = test: Inhibition zone, paper disk/agar diffusion; type: cell-based; conditions: Na = no activity
How it was run: as §3

E. faecalis ATCC 29212 [15] = test: Inhibition zone, paper disk/agar diffusion; type: cell-based; conditions: E. faecalis; Na = no activity
How it was run: as §3

S. typhi ATCC 6539 = test: Inhibition zone, paper disk/agar diffusion; type: cell-based; conditions: S. typhi; Na = no activity
How it was run: as §3

[16] = test system: CD4+ and CD8+ T lymphocytes; test: In vivo T lymphocyte subsets from peripheral blood, flow cytometry; conditions: mice
S. aureus ATCC 43300 [17] = test: Inhibition zone against multidrug-resistant bacteria; type: cell-based; conditions: MDRB S. aureus ATCC 43300
How it was run: as §3

S. aureus ATCC 33591 [18] = test: as above; type: cell-based; conditions: MDRB S. aureus ATCC 33591
How it was run: as §3

E. coli ATCC BAA-196 [19] = test: as above; type: cell-based; conditions: MDRB E. coli ATCC BAA-196
How it was run: as §3

[20] = test system: P. aeruginosa ATCC BAA-2111; test: as above; type: cell-based; conditions: MDRB P. aeruginosa ATCC BAA-2111
How it was run: as §3

P. aeruginosa ATCC 27853 [21] = test: MIC and MBC determination; type: cell-based; conditions: Pseudomonas aeruginosa, ATCC27853, P. aeruginosa

## COc1ccc(/C=C(\C#N)C(=O)Nc2ccc(S(=O)(=O)NC(=N)N)cc2)cc1O [Compound 2d, N-(4-(N-Carbamimidoylsulfamoyl)phenyl)-2-cyano-3-(3-hydroxy-4-methoxyphenyl) acryl-amide]
[1]
  IC50: 4.33 ± 0.18 µM
[1]; E. coli DHFR IC50
  fold relative to trimethoprim: 1.19 fold
[2]
  MFC: 66.84 ± 0.85 µM (≈ 27.8 µg/mL)
  MFC/MIC: <2
  MIC: 37.60 ± 0.25 µM (≈ 15.6 µg/mL)
[2]; Fusarium oxysporum, RCMB008002, read-out: MFC
  MFC: 66.8 µM (≈ 27.8 µg/mL)
[2]; Fusarium oxysporum, RCMB008002, read-out: MIC
  MIC: 37.6 µM (≈ 15.6 µg/mL)
C. albicans (ATCC 10231) [3]
  MFC: 37.60 ± 0.38 µM (≈ 15.6 µg/mL)
  MFC/MIC: <2
  MIC: 18.80 ± 0.65 µM (≈ 7.81 µg/mL)
C. albicans (ATCC 10231) [3]; Candida albicans, ATCC10231, read-out: MFC
  MFC: 37.6 µM (≈ 15.6 µg/mL)
C. albicans (ATCC 10231) [3]; Candida albicans, ATCC10231, read-out: MIC
  MIC: 18.8 µM (≈ 7.81 µg/mL)
S. aureus ATCC 43300 [4]; read-out: MBC
  MBC: 9.38 ± 0.41 µM (≈ 3.9 µg/mL)
S. aureus ATCC 43300 [4]; read-out: MIC
  MIC: 4.69 ± 0.25 µM (≈ 1.95 µg/mL)
S. aureus ATCC 33591 [5]; read-out: MBC
  MBC: 18.8 ± 0.25 µM (≈ 7.8 µg/mL)
S. aureus ATCC 33591 [5]; read-out: MIC
  MIC: 9.38 ± 0.32 µM (≈ 3.9 µg/mL)
E. coli ATCC BAA-196 [6]
  MBC: 9.38 ± 0.54 µM (≈ 3.9 µg/mL)
  MIC: 4.69 ± 0.36 µM (≈ 1.95 µg/mL)
E. coli ATCC BAA-196 [6]; Escherichia coli, ATCCBAA196, read-out: MBC
  MBC: 9.38 µM (≈ 3.9 µg/mL)
E. coli ATCC BAA-196 [6]; Escherichia coli, ATCCBAA196, read-out: MIC
  MIC: 4.69 µM (≈ 1.95 µg/mL)
[7]
  MBC: 18.77 ± 0.61 µM (≈ 7.8 µg/mL)
  MIC: 9.38 ± 0.49 µM (≈ 3.9 µg/mL)
[7]; Pseudomonas aeruginosa, ATCCBAA2111, read-out: MBC
  MBC: 18.8 µM (≈ 7.8 µg/mL)
[7]; Pseudomonas aeruginosa, ATCCBAA2111, read-out: MIC
  MIC: 9.38 µM (≈ 3.9 µg/mL)
S. aureus DNA gyrase
  IC50: 18.2 ± 1.18 µM
E. faecalis ATCC 29212 [8]; read-out: MBC
  MBC: 15.9 ± 0.58 µM (≈ 6.63 µg/mL)
E. faecalis ATCC 29212 [8]; read-out: MIC
  MIC: 9.38 ± 0.24 µM (≈ 3.9 µg/mL)
MDRB strains
  MBC range: 9.38 to 18.77 µM
  MIC range: 4.69 to 9.38 µM
B. subtilis ATCC 6633
  MBC: 9.38 ± 0.96 µM (≈ 3.9 µg/mL)
  MIC: 4.69 ± 0.98 µM (≈ 1.95 µg/mL)
B. subtilis ATCC 6633; Bacillus subtilis, ATCC6633, read-out: MBC
  MBC: 9.38 µM (≈ 3.9 µg/mL)
B. subtilis ATCC 6633; Bacillus subtilis, ATCC6633, read-out: MIC
  MIC: 4.69 µM (≈ 1.95 µg/mL)
[9]; read-out: MBC
  MBC: 30.1 ± 0.75 µM (≈ 12.5 µg/mL)
[9]; read-out: MIC
  MIC: 18.8 ± 0.85 µM (≈ 7.81 µg/mL)
E. coli ATCC 25922 [10]
  MBC: 4.66 ± 0.21 µM (≈ 1.94 µg/mL)
  MIC: 2.33 ± 0.32 µM (≈ 0.968 µg/mL)
E. coli ATCC 25922 [10]; Escherichia coli, ATCC25922, read-out: MBC
  MBC: 4.66 µM (≈ 1.94 µg/mL)
E. coli ATCC 25922 [10]; Escherichia coli, ATCC25922, read-out: MIC
  MIC: 2.33 µM (≈ 0.968 µg/mL)
Spleen and thymus
  Spleen index: 0.018 ± 0.00
  Spleen weight: 250 ± 0.03 mg
  Thymus index: 0.532 ± 0.06 mg/g
  Thymus weight: 15.56 ± 0.54 mg
S. aureus ATCC 29213
  Mean Diameter of the Inhibition Zone: 33 ± 0.53 mm
E. coli ATCC 25922 [11]
  Mean Diameter of the Inhibition Zone: 30 ± 0.29 mm
[12]
  Mean Diameter of the Inhibition Zone: 22 ± 0.11 mm
P. aeruginosa ATCC 27853 [13]
  Mean Diameter of the Inhibition Zone: 27 ± 0.73 mm
C. albicans (ATCC 10231) [14]
  Mean Diameter of the Inhibition Zone: 27 ± 0.50 mm
E. faecalis ATCC 29212 [15]
  Mean Diameter of the Inhibition Zone: 29 ± 0.17 mm
S. typhi ATCC 6539
  Mean Diameter of the Inhibition Zone: 29 ± 0.20 mm
[16]
  T cells CD4+: 79.61 ± 0.3%
  T cells CD8+: 27.05 ± 0.5%
S. aureus ATCC 43300 [17]
  Mean Diameter of Inhibition Zone: 27 ± 0.3 mm
S. aureus ATCC 33591 [18]
  Mean Diameter of Inhibition Zone: 24 ± 0.32 mm
E. coli ATCC BAA-196 [19]
  Mean Diameter of Inhibition Zone: 25 ± 0.86 mm
[20]
  Mean Diameter of Inhibition Zone: 26 ± 0.41 mm
P. aeruginosa ATCC 27853 [21]; read-out: MBC
  MBC: 25.5 ± 0.65 µM (≈ 10.6 µg/mL)
P. aeruginosa ATCC 27853 [21]; read-out: MIC
  MIC: 13.4 ± 0.25 µM (≈ 5.57 µg/mL)
